Experimental findings from ChEMBL document CHEMBL5096148, “Natural Products with Potential to Treat RNA Virus Pathogens Including SARS-CoV-2” (J Nat Prod, 2021) are described below.

As usually defined, the EC50 is the concentration needed to bring the measured effect to its halfway point. The IC50 is the midpoint of a concentration-inhibition curve. Usually IC90 stands for the point of the concentration-response curve where the effect stands at 90%.

For assay [1], the system named is dengue virus type 2. Briefly: Antiviral activity against DENV2 new Guinea by neutral red uptake analysis. The format is functional, organism-based.
The subject of assay [2] is Marburgvirus. The assay is described as follows: Antiviral activity against MARV musoke by high-content image analysis. Type of assay: functional, organism-based. Conditions: Orthomarburgvirus.
Assay [3] has as its system Ebolavirus. The assay is described as follows: Antiviral activity against EBOV Kikwit by high-content image analysis. The format is functional, organism-based. Conditions: Orthoebolavirus.
The subject of assay [4] is Middle East respiratory syndrome-related coronavirus. The assay is described as follows: Antiviral activity against MERS-CoV jordan N3 by high-content image analysis. Type of assay: functional, organism-based.
In assay [5] the test system is SARS-CoV. The assay is described as follows: Antiviral activity against SARS-Cov urbani by neutral red uptake analysis. Conditions: Severe acute respiratory syndrome-related coronavirus. Type of assay: functional, organism-based.
For another assay, the system named is Sudan ebolavirus. Briefly: Antiviral activity against SUDV Boniface by high-content image analysis. The format is functional.
Assay [6] deals with Ebolavirus. Briefly: Antiviral activity against EBOV infected in Vero E6 cells assessed as reduction in virus titer incubated for 5 days by immunofocus assay. The following applies: Orthoebolavirus, Vero C1008, 120 h. The format is functional, organism-based.
Assay [7] has as its system Ebolavirus. The assay is described as follows: Antiviral activity against EBOV infected in HMVEC cells. Type of assay: functional, organism-based. The following applies: Orthoebolavirus.
The subject of assay [8] is dengue virus type 2. Briefly: Antiviral activity against DENV-2 infected in Baby hamster BHK cells assessed as reduction in virus-induced cytopathic effect. The format is functional, organism-based. In general terms: Protection from cytopathic effect is a common read-out in antiviral testing.
Assay [9] has as its system Ebolavirus. The assay is described as follows: Antiviral activity against pseudo typed EBOV infected in human A549 cells assessed as inhibition of viral growth. Conditions: Orthoebolavirus. The format is functional, organism-based.
The test system of assay [10] is Marburgvirus. Briefly: Antiviral activity against Marburg virus. The format is functional, organism-based. The following applies: Orthomarburgvirus.
In assay [11] the test system is Ebolavirus. The assay is described as follows: Antiviral activity against pseudo typed EBOV infected in human HEK293T cells assessed as inhibition of viral growth. The following applies: Orthoebolavirus, HEK-293T. Type of assay: functional, organism-based.
Assay [12] deals with Marburgvirus. The assay is described as follows: Antiviral activity against MARV infected in human A549 cells assessed as inhibition of viral growth. Type of assay: functional, organism-based. Conditions: Orthomarburgvirus.
The test system of assay [13] is Ebolavirus. Briefly: Antiviral activity against EBOV infected in human A549 cells assessed as inhibition of viral growth. Conditions: Orthoebolavirus. The format is functional, organism-based.
For assay [14], the system named is Ebolavirus. The assay is described as follows: Antiviral activity against EBOV. Type of assay: functional, organism-based. The following applies: Orthoebolavirus.
Assay [15] deals with dengue virus type 2. The assay is described as follows: Antiviral activity against DENV2 infected in human A549 cells at 25 uM incubated for 24 hrs by plaque assay relative to control. Type of assay: functional.
In assay [16] the test system is SARS-CoV. The assay is described as follows: Antiviral activity against SARS-CoV assessed as reduction in virus-induced cytopathic effect. Type of assay: functional, organism-based. The following applies: Severe acute respiratory syndrome-related coronavirus.

Values after ≈ are worked out from the molar mass of the structure shown.

On to `Nc1ncnc2c([C@@H]3N[C@H](CO)[C@@H](O)[C@H]3O)c[nH]c12`, for which the half-maximal effective concentration (EC50) in the assay on dengue virus type 2 [1] was 32.8 µM; in the assay on Marburgvirus [2], 4.4 µM; with Ebolavirus [3], 11.8 µM; in assay [4], 68.4 µM; with SARS-CoV [5], 57.7 µM; with Sudan ebolavirus, 3.4 µM.
Consider `NC(=O)c1nc(F)cnc1O`, for which the IC50 in the assay with Ebolavirus [6] amounted to 67 µM. Also, the concentration for an effect of 90% (IC90) in the assay on Ebolavirus [6] (time 5 day) was 110 µM.
The compound `CCC(CC)COC(=O)[C@H](C)N[P@](=O)(OC[C@H]1O[C@@](C#N)(c2ccc3c(N)ncnn23)[C@H](O)[C@@H]1O)Oc1ccccc1` displayed an EC50 with Ebolavirus [7] of 0.06 µM.
For the compound `CN[C@@H]1[C@@H](O)[C@H](O[C@@H]2[C@@H](O)[C@H](O[C@H]3O[C@H]([C@H](C)O)[C@@H](O)[C@H](O)[C@H]3N)[C@@H](N)C[C@H]2N)OC[C@]1(C)O`, the EC50 in the assay on dengue virus type 2 [8] was 3 µg/mL (≈ 6.04 µM).
With `C=C(C)O[C@@H]1[C@@H](OC(C)=O)[C@H](NC(=O)[C@]23CCC(C)(C)C[C@H]2C2=CC[C@@H]4[C@@]5(C)CCC(=O)C(C)(C)[C@@H]5CC[C@@]4(C)[C@]2(C)CC3=O)O[C@H](COC(C)=O)[C@@H]1OC(C)=O`, the figures for the IC50 in the assay with Ebolavirus [9] and in the assay with Marburgvirus [10] were 0.0592 µM and 2.29 µM, respectively.
Consider `C#CN(CCCC1(C)N=N1)C(=O)[C@]12CCC(C)(C)C[C@H]1C1=CC[C@@H]3[C@@]4(C)CCC(=O)C(C)(C)[C@@H]4CC[C@@]3(C)[C@]1(C)CC2=O`, for which the values for the half-maximal inhibitory concentration (IC50) in the assay on Ebolavirus [11] and in the assay on Marburgvirus [10] were 0.467 µM and 5.52 µM, respectively.
For the compound `O=c1oc2c(O)c(O)cc3c(=O)oc4c(O)c(O)cc1c4c23` [ELLAGIC ACID], the IC50 in the assay with Marburgvirus [12] was determined as 6.4 µM; with Ebolavirus [13], 1.4 µM.
In the assay with Ebolavirus [14], `C=CCc1ccc(O)c(OC)c1` [EUGENOL] showed an EC50 of 1.3 µM.
`C[C@H](CC[C@H](O)[C@](C)(O)CO)[C@H]1CC[C@@]2(C)C3=CC[C@H]4C(C)(C)C(=O)CC[C@]4(C)C3=CC[C@]12C` [GANODERMANONTRIOL] gave an Activity in the assay with dengue virus type 2 [15] of 25%.
`O[C@H]1[C@H]2c3cc4c(cc3CN3CCC(=C[C@@H]1O)[C@H]23)OCO4` [LYCORINE]: in the assay on SARS-CoV [16], the 50% effective concentration (EC50) worked out at 0.0157 µM.
